Several values for one entry are separate records, joined by “and”; a condition that tells them apart may be missing. Equal entries are not always repeated. Where two headings read alike, the source gives them in different places.
How the values were obtained:
[1] = system: Children with Progressive Familial Intrahepatic Cholestasis; assay: INDIGO phase 2 open-label efficacy and safety clinical study of maralixibat in PFIC; type: in vivo, human; conditions: for 7αC4:sBA ratio: high-dose responder
[2] = system: Participants with Primary Sclerosing Cholangitis (PSC); assay: CAMEO 14-week single-arm open-label phase 2a study of maralixibat in PSC; type: in vivo, human
Method: Participants were adults aged 18-80 years with a diagnosis of PSC. PSC diagnosis included a documented history of alkaline phosphatase (ALP) levels greater than 1.5 times above the upper limit of normal, biliary obstruction, and histological findings consistent with PSC diagnosis (if previously biopsied). The study enrolled 27 adults.
Efficacy was assessed by measuring at baseline and throughout the study sBA concentration, serum 7αC4 concentration (a marker of de novo bile acid synthesis), serum aoutotaxin concentration, LDL-C concentration, serum total cholesterol concentration, serum liver enzyme concentrations, and pruritus severity. Pruritus severity was determined by calculating Adult Itch Reported Outcome (ITCHRO) weekly sum scores and average daily scores (mean score over a 7-day period). Participants self-reported the ITCHRO daily on a scale 0-10 (0=no pruritus; 10=most severe pruritus).
Outcomes were assessed in the overall study population and in subgroups of participants (A) with any pruritus at baseline or (B) with an ITCHRO average daily score ≥4 out of 10 at baseline. Efficacy endpoints were based on change from baseline to week 14 or early termination (ET) and were analyzed using paired t-tests or Wilcoxon signed rank tests.

[3] = system: Children with Alagille Syndrome
Method: Children aged 1-18 years with a diagnosis of ALGS and evidence of cholestasis were eligible to enroll in the ICONIC clinical study, see Tables 12-14. During a long-term extension, participants with sBA levels above the upper limit of normal and/or an ITCHRO(OBS) score >1.5 were eligible for the 400 μg/kg BID dose (all participants received the 400 μg/kg BID dose). Inclusion criteria for the ICONIC study included having cholestasis, which was defined as at least one of 1) sBA concentration (total sBA) >3× the upper limit of normal, 2) serum conjugated bilirubin concentration >1 mg/dL, 3) fat-soluble vitamin deficiency not otherwise explained, 4) serum gamma-glutamyl transferase concentration >3× the upper limit of normal, and 3) intractable pruritus explainable only by liver disease. Inclusion criteria also included having significant pruritus, which was defined as an average daily score of >2 on the ITCHRO(OBS) scale for 2 consecutive weeks (0=no pruritus; 4=most severe pruritus). Exclusion criteria included having surgically disrupted enterohepatic circulation, a liver transplant, decompensated cirrhosis, or having any liver disease other than ALGS.
sBA responders were defined as those patients achieving ≥50% reduction from baseline in sBA at week 12 or 18. ITCHRO responders were defined as those patients achieving at least a 1-point reduction from Baseline in weekly morning ITCHRO(OBS) score at week 12 or 18.
In the open label extension, the effect of higher doses was explored by increasing dosage to a maximum of 400 μg/kg BID in eligible participants.
Efficacy assessments were based on changes from baseline in sBA concentration, weekly average ITCHRO(OBS) scores (0, none; 4, most severe), CSS score (0, none; 4 most severe), and Clinician Xanthoma Scale score (0, none; 4, disabling). […] During the long-term extension, efficacy assessments were conducted every 12 weeks. Serum total cholesterol and serum 7αC4 concentration were also monitored during the ICONIC clinical study, among other measures.
sBA were measured using a fully validated liquid chromatography-electrospray ionization-mass electrospray (LC-ESI-MS) method using stable-isotope dilution analysis to measure serum concentrations of principal bile acids (cholic, chenodeoxycholic, ursodeoxycholic, deoxycholic acid, lithocholic, and their corresponding glycine and taurine conjugates). Serum samples were analyzed in the Division of Pathology and Laboratory Medicine, Cincinnati Children's Hospital Medical Center according to SOP #PATH.CMS.1033. Calibration standards of individual bile acids were in the range of 50-25,000 ng/mL and Quality Control samples were prepared at concentrations of 100, 500, 1000, 2500, and 20000 ng/mL. The intra- and inter-assay imprecision of the method for individual bile acids measured was within the accepted GLP quality assurance guidelines of <15% coefficient of variance for these QC samples. The lower limit of quantification of the assay was set at 100 ng/mL and the imprecision at this concentration was <20%. The limit of detection of the assay was 5 ng/mL. Total sBA is represented by the sum of the individual bile acid species measured.

[4] = participants with ITCHRO daily score ≥4 at baseline, one line per Participant A-F
[5] = participants with an ITCHRO daily score ≥4 at baseline

## maralixibat
[1]; all PFIC 1 patients and all patients harboring a truncating ABCB11 mutation
  multi-parameter response: not multi-parameter responders
[1]; all low-dose responders, e.g. within 2-6 months of first administration
  serum ALT, AST, and bilirubin concentrations over time: normalized or only mildly elevated concentrations
[1]; all low-dose responders, within 13 weeks of first administration
  increase in C4 levels relative to baseline: at least 2.5 fold
[1]; high dose responder, following treatment response on sBA
  height Z-score: increase in height Z-score
[1]; prior to administration of 560 μg/kg/day
  7αC4:sBA ratio: 12 times baseline
[1]; upon administration of the higher dose (560 μg/kg/day)
  7αC4:sBA ratio: 1770 times baseline
[1]; low-dose responder losing response in long-term extension, 280 μg/kg BID from between 640 and 730 days
  cholestasis markers after administration of the higher dose: sBA concentration decreased, severity of pruritus decreased, serum 7αC4 concentration increased, and 7αC4:sBA ratio increased
[1]; low-dose responder with sBA increase in long-term extension, 280 μg/kg BID from between 820 and 910 days
  pruritus after administration of the higher dose: severity of pruritus subsequently decreased
[1]; low-dose responders
  7αC4 concentrations at 48 weeks: 14 × baseline
  growth (height Z-score change relative to baseline): improved growth relative to baseline
  mean change from baseline at week 48 in 7αC4:sBA ratio: 1388 times baseline ratio
[1]; mild PFIC 2 patients, 280 μg/kg QD
  multi-parameter responder: 1 of 7
[1]; moderate PFIC 2 patients, 280 μg/kg/day by week 48
  responders: 5 of 12
[1]; moderate PFIC 2 patients, responsive only after 280 μg/kg twice daily
  high-dose responder: 1 of 12
[1]; non-responders
  7αC4 concentrations at 48 weeks: 1.8 × baseline
  growth (height Z-score change relative to baseline): did not
  mean change from baseline at week 48 in 7αC4:sBA ratio: 1.9 times baseline ratio
[1]; non-truncating BSEP mutations
  patients with ≥1.0 pt. reduction in ITCHRO(OBS) score: 10/19
[1]; responders
  duration of maintained response: for over a year and for up to or beyond 5 years
[1]; responders (n = 6) by week 48
  ItchRO score, n: Improved by ≥1.0 points from baseline: 4
  ItchRO score, n: Zero (no pruritus): 2
  sBA levels, n: Normalized (±≤8.5 μmol/L): 4
  sBA levels, n: Reduced by ≥70% or ≥80% from baseline: 2
[1]; three non-truncating PFIC 2 patients without response at 280 μg/kg/day given 560 μg/kg/day
  patients responding at the higher dose: one
[1]; week 48
  ALT, change from baseline to week 48, mean: −12 UI/L
  C4, change from baseline to week 48, mean: +6.0 ng/mL
  ItchRO(Obs) score, change from baseline to week 48, mean: −1.0
  PedsQL total score, change from baseline to week 48, mean: +8.2
  Total bilirubin, change from baseline to week 48, mean: +0.8 mg/dL
  sBA, change from baseline to week 48, mean: -32 µmol/L
[2]; adults with PSC, up to 10 mg/day
  tolerability: well tolerated
[2]; baseline to week 14
  participants with worsening of pruritus by >1 point: No participants
[2]; overall
  7αC4, mean increase from baseline: 11.1 ng/mL
  Mean levels of 7αC4, increase from baseline: 130%
  sBA levels, decrease from baseline: 38%
  sBA levels, mean change from baseline: -14.8 µmol/L
[2]; overall population
  Mean conjugated bilirubin levels, increase: 0.19 mg/dL
  serum LCL-C concentration, change: -16.3 mg/dL
  serum autotaxin concentration, change: -148 ng/mL
  total cholesterol, mean change: -21.2 mg/dL
[2]; overall, baseline to week 14/ET
  ITCHRO weekly sum scores, decrease from baseline: 51%
[2]; participants in the CAMEO clinical study
  Changes in serum total bilirubin, alanine aminotransferase, aspartate aminotransferase, and alkaline phosphatase concentrations: not statistically significant
[2]; participants with ITCHRO daily score ≥0 at baseline
  conjugated bilirubin levels, change: no significant change
[2]; [4]
  ItchRO average daily score (0-10 scale), Change from baseline to week 14/ET: −4.7 and −4.6 and −1.7 and −3.7 (2×) and −9.1
  ItchRO average daily score (0-10 scale), Week 14/ET: 0 (2×) and 1.3 and 5.1 and 3.1 and 2.3
[2]; participants with an ITCHRO daily score >4 at baseline
  autotaxin levels: significant reductions
[2]; participants with an ITCHRO daily score >4 out of 10 at baseline (n=6)
  ITCHRO weekly sum scores, decrease from baseline: 70%
[2]; [5]
  Mean levels of 7αC4, increase from baseline: 107%
  sBA levels, decrease from baseline: 45%
  total cholesterol, mean change: -32.0 mg/dL
[2]; participants with an ITCHRO score ≥4 at baseline
  participants in whom pruritus improved: all 6
[2]; participants with any pruritus at baseline (n=18)
  ITCHRO weekly sum scores, decrease from baseline: 53%
[3]; 400 μg/kg QD then 400 μg/kg BID
  weight Z-scores: dose-dependent increase in weight Z-scores
[3]; ITCHRO(OBS) weekly morning average score, one line per Subject ID (Table 18)
  Change in ItchRO from Baseline to Week 48: 0.49 and −0.45 and 1.29 and −3.86 and 0.00 and −2.57 and −1.86 (2×) and −1.71 (2×) and −1.00 (2×) and −1.29 and −1.67 and −1.14 and −1.03 and −3.29 (2×) and −3.43 and −2.50 and −2.71 (2×) and −3.50 and −2.29 and −0.17 and −1.43 and −0.83 and −0.12
[3]; Normalization (<8.5 μmol/L)
  sBA response, Week 48 (N = 28) n (%): 1 (3.6%)
[3]; Open-label Week 18
  ItchRO (Obs) responders, Decrease from baseline ≥1: 67.7%
  ItchRO (Obs) responders, Decrease from baseline ≥1.25: 58.1%
  ItchRO (Obs) responders, Decrease from baseline ≥1.5: 51.6%
[3]; Open-label Week 48
  ItchRO (Obs) responders, Decrease from baseline ≥1: 72.4%

From patent US12599602B2, “Methods for treating cholestasis” (Mirum Pharmaceuticals, Inc., priority 2019, dated 2026)
